Our source for the Activity and EC50 values is ChEMBL document CHEMBL3244148, “Agonist effects of beta-phenethylamines on the noradrenergic cyclic adenosine 3',5'-monophosphate generating system in rat limbic forebrain. Stereoisomers of p-hydroxynorephedrine” (J Med Chem, 1977).

Where a name gives a salt, the structure may show the parent alone. Activity calls are given as the source filed them. No cut-off for these calls is given here.

The first experiment is filed under the species Rattus norvegicus. Description: Agonist activity at noradrenergic receptor in Sprague-Dawley rat limbic forebrain assessed as increase in c-AMP production up to 10^-4 M incubated for 10 mins. The experiment is classed as tissue-based. The note with it: Limbic system.
With `C[C@H](N)Cc1ccccc1`, the result was inactive.

In the case of `NCC(O)c1ccc(O)cc1` (racemic), the outcome was inactive.

In the case of `C[C@H](N)[C@H](O)c1ccc(O)cc1`, the outcome was inactive.

Turning to `C[C@H](N)[C@H](O)c1cccc(O)c1`, the result was inactive.

For `NCCc1ccc(O)c(O)c1`, the result was inactive.

As to `C[C@H](N)[C@@H](O)c1ccc(O)cc1`, the result was inactive.

As to `C[C@H](N)Cc1ccc(O)cc1`, the result was inactive.

System in a further experiment: not listed separately
Description: Agonist activity at noradrenergic receptor in Sprague-Dawley rat limbic forebrain assessed as increase in c-AMP production incubated for 10 mins.
Conditions: not given
Turning to `CC(N)C(O)c1ccc(O)c(O)c1` (racemic) [NORDEFRIN HYDROCHLORIDE], the EC50 was 10 µM.

As for `CNC[C@@H](O)c1ccc(O)c(O)c1`, the 50% effective concentration (EC50) was above 100 µM.

For `CC(C)NC[C@H](O)c1ccc(O)c(O)c1`, the EC50 worked out at 5 µM.

On to `CNC[C@H](O)c1ccc(O)c(O)c1` [EPINEPHRINE BITARTRATE], for which the 50% effective concentration (EC50) was 5 µM.

Usually EC50 stands for the concentration that produces a half-maximal response.
